# Source: PubChem BioAssay AID200 (DTP/NCI, 2004)
# “And” between values parts separate entries of the source, which are not always exact repeats. Identical values can stand only once. Toxic doses and inconclusive results are not listed. Where a SMILES comes first, the peptide text is derived from it.
# Tested on: B6C3F1 mice, B16 melanoma ip, median survival T/C
# Experiment: NCI In Vivo Anticancer Drug Screen. Data for tumor model B16 Melanoma (intraperitoneal) in B6C3F1 mice
# Conditions: endpoint: median survival time, higher = longer survival
# Summary of the method: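 Antitumor effect was judged in mice with transplanted tumors by dividing the treated group's survival measure by that of vehicle controls.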
# [1] = dose: 100.0 mg/kg/injection, schedule: Q01DX009 (ip), vehicle: saline
# [2] = dose: 200.0 mg/kg/injection, schedule: Q01DX009 (ip), vehicle: saline
# [3] = dose: 400.0 mg/kg/injection, schedule: Q01DX009 (ip), vehicle: saline
# [4] = dose: 100.0 mg/kg/injection, schedule: Q01DX009 (ip), vehicle: Klucel (hydroxypropylcellulose) (HPC)
# [5] = dose: 200.0 mg/kg/injection, schedule: Q01DX009 (ip), vehicle: Klucel (hydroxypropylcellulose) (HPC)
# [6] = dose: 25.0 mg/kg/injection, schedule: Q01DX009 (ip), vehicle: saline with Tween-80
# [7] = dose: 50.0 mg/kg/injection, schedule: Q01DX009 (ip), vehicle: saline with Tween-80
# [8] = dose: 100.0 mg/kg/injection, schedule: Q01DX009 (ip), vehicle: saline with Tween-80
# [9] = dose: 200.0 mg/kg/injection, schedule: Q01DX009 (ip), vehicle: saline with Tween-80
# [10] = dose: 400.0 mg/kg/injection, schedule: Q01DX009 (ip), vehicle: saline with Tween-80
# [11] = dose: 12.5 mg/kg/injection, schedule: Q01DX009 (ip), vehicle: Klucel (hydroxypropylcellulose) (HPC)
# [12] = dose: 12.5 mg/kg/injection, schedule: Q01DX009 (ip), vehicle: saline with Tween-80
smiles,measurement,setting,value
C=C1C(O)C2OC3(CCC(/C=C/C(C)C4CC5(C)SC5C5(OC(CC(C)(O)C(=O)O)CCC5O)O4)O3)CCC2OC1C(O)CC(C)C1OC2(CCCCO2)CCC1C (stereo unspecified),T/C,"dose: 1.25 micrograms/kg/injection, schedule: Q01DX009 (ip), vehicle: saline + alcohol",104 % of control
same,T/C,"dose: 2.5 micrograms/kg/injection, schedule: Q01DX009 (ip), vehicle: saline + alcohol",111 % of control
same,T/C,"dose: 5.0 micrograms/kg/injection, schedule: Q01DX009 (ip), vehicle: saline + alcohol",120 % of control
same,T/C,"dose: 20.0 micrograms/kg/injection, schedule: Q01DX009 (ip), vehicle: saline + alcohol",97 % of control
CONc1ccn(C2OC(CO)C(O)C2O)c(=O)n1 (stereo unspecified),T/C,"dose: 12.5 mg/kg/injection, schedule: Q01DX009 (ip), vehicle: saline",92 % of control and 98 % of control
same,T/C,"dose: 25.0 mg/kg/injection, schedule: Q01DX009 (ip), vehicle: saline",101 % of control and 102 % of control
same,T/C,"dose: 50.0 mg/kg/injection, schedule: Q01DX009 (ip), vehicle: saline",103 % of control and 104 % of control
same,T/C,[1],91 % of control and 106 % of control
same,T/C,[2],113 % of control and 91 % of control
same,T/C,[3],89 % of control and 94 % of control
CC1CCC(NC(=O)N(CCCl)N=O)CC1 (stereo unspecified),T/C,"dose: 2.5 mg/kg/injection, schedule: Q01DX005 (ip), vehicle: other",114 % of control
same,T/C,"dose: 2.5 mg/kg/injection, schedule: Q01DX005 (iv), vehicle: other",107 % of control
same,T/C,"dose: 4.0 mg/kg/injection, schedule: Q04DX002 (ip), vehicle: other",98 % of control
same,T/C,"dose: 5.0 mg/kg/injection, schedule: Q01DX005 (ip), vehicle: other",151 % of control
same,T/C,"dose: 8.0 mg/kg/injection, schedule: Q04DX002 (ip), vehicle: other",113 % of control
same,T/C,"dose: 10.0 mg/kg/injection, schedule: Q01DX001 (iv), vehicle: other",111 % of control
same,T/C,"dose: 10.0 mg/kg/injection, schedule: Q01DX005 (ip), vehicle: other",294 % of control
same,T/C,"dose: 16.0 mg/kg/injection, schedule: Q04DX002 (ip), vehicle: other",165 % of control
same,T/C,"dose: 20.0 mg/kg/injection, schedule: Q01DX001 (ip), vehicle: other",162 % of control
same,T/C,"dose: 20.0 mg/kg/injection, schedule: Q01DX001 (iv), vehicle: other",168 % of control
same,T/C,"dose: 32.0 mg/kg/injection, schedule: Q04DX002 (ip), vehicle: other",76 % of control
same,T/C,"dose: 40.0 mg/kg/injection, schedule: Q01DX001 (ip), vehicle: other",223 % of control
same,T/C,"dose: 40.0 mg/kg/injection, schedule: Q01DX001 (iv), vehicle: other",222 % of control
NCC(=O)NC(Cc1ccccc1)C(=O)NCC(=O)O (stereo unspecified) (HELM PEPTIDE1{G.[O=C(C(Cc1ccccc1)N[*:1])[*:2]].G}$$$$V2.0),T/C,[4],103 % of control
same,T/C,[5],95 % of control
same,T/C,"dose: 400.0 mg/kg/injection, schedule: Q01DX009 (ip), vehicle: Klucel (hydroxypropylcellulose) (HPC)",100 % of control
C=CCCC(=O)CCCC(=O)O[C@@H]1[C@@H]2[C@H](CC1(C)C)[C@H](O)[C@@]13O[C@@H]1[C@H](O)[C@@]1(CO1)[C@@]23C,T/C,"dose: 3.12 micrograms/kg/injection, schedule: Q01DX009 (ip), vehicle: saline",97 % of control
same,T/C,"dose: 6.25 micrograms/kg/injection, schedule: Q01DX009 (ip), vehicle: saline",91 % of control
same,T/C,"dose: 12.5 micrograms/kg/injection, schedule: Q01DX009 (ip), vehicle: saline",103 % of control
same,T/C,"dose: 25.0 micrograms/kg/injection, schedule: Q01DX009 (ip), vehicle: Klucel (hydroxypropylcellulose) (HPC)",98 % of control
same,T/C,"dose: 25.0 micrograms/kg/injection, schedule: Q01DX009 (ip), vehicle: saline",93 % of control
same,T/C,"dose: 50.0 micrograms/kg/injection, schedule: Q01DX009 (ip), vehicle: Klucel (hydroxypropylcellulose) (HPC)",91 % of control
same,T/C,"dose: 50.0 micrograms/kg/injection, schedule: Q01DX009 (ip), vehicle: saline",97 % of control
same,T/C,"dose: 100.0 micrograms/kg/injection, schedule: Q01DX009 (ip), vehicle: saline",98 % of control
same,T/C,"dose: 200.0 micrograms/kg/injection, schedule: Q01DX009 (ip), vehicle: Klucel (hydroxypropylcellulose) (HPC)",98 % of control
same,T/C,"dose: 400.0 micrograms/kg/injection, schedule: Q01DX009 (ip), vehicle: Klucel (hydroxypropylcellulose) (HPC)",96 % of control
C=COC(=O)C(Cc1ccccc1)NC(=O)OCc1ccccc1 (stereo unspecified),T/C,[6],102 % of control
same,T/C,[7],98 % of control
same,T/C,[8],96 % of control
same,T/C,[9],102 % of control
same,T/C,[10],90 % of control
COc1c(C=O)c2c(c(OC)c1OC)-c1ccc(OC)c(=O)cc1[C@@H](NC(C)=O)CC2,T/C,"dose: 0.78 mg/kg/injection, schedule: Q01DX009 (ip), vehicle: Klucel (hydroxypropylcellulose) (HPC)",116 % of control
same,T/C,"dose: 1.56 mg/kg/injection, schedule: Q01DX009 (ip), vehicle: Klucel (hydroxypropylcellulose) (HPC)",111 % of control and 121 % of control and 124 % of control
same,T/C,"dose: 3.12 mg/kg/injection, schedule: Q01DX009 (ip), vehicle: Klucel (hydroxypropylcellulose) (HPC)",123 % of control and 107 % of control
same,T/C,"dose: 6.25 mg/kg/injection, schedule: Q01DX009 (ip), vehicle: Klucel (hydroxypropylcellulose) (HPC)",116 % of control
same,T/C,[11],120 % of control
same,T/C,"dose: 12.6 mg/kg/injection, schedule: Q01DX009 (ip), vehicle: Klucel (hydroxypropylcellulose) (HPC)",114 % of control
COC1=Nc2ccccc2N2CCN=C12,T/C,"dose: 6.25 mg/kg/injection, schedule: Q04DX003 (ip), vehicle: saline with Tween-80",103 % of control
same,T/C,"dose: 12.5 mg/kg/injection, schedule: Q04DX003 (ip), vehicle: saline with Tween-80",106 % of control
same,T/C,"dose: 25.0 mg/kg/injection, schedule: Q04DX003 (ip), vehicle: saline with Tween-80",96 % of control
same,T/C,"dose: 50.0 mg/kg/injection, schedule: Q04DX003 (ip), vehicle: saline with Tween-80",96 % of control
CC(=O)O[C@@H]1C(=O)C=C(C)[C@@H]2[C@@H](OC(=O)C=C(C)C)[C@H]3OC(=O)C[C@H]4[C@@H](C)[C@@H](O)[C@]5(O)OC[C@]34[C@H]5[C@@]12C,T/C,"dose: 1.0 mg/kg/injection, schedule: Q01DX005 (ip), vehicle: distilled water + Tween-80",163 % of control
same,T/C,"dose: 2.0 mg/kg/injection, schedule: Q01DX005 (ip), vehicle: distilled water + Tween-80",160 % of control
same,T/C,"dose: 4.0 mg/kg/injection, schedule: Q01DX009 (ip), vehicle: distilled water + Tween-80",155 % of control
same,T/C,"dose: 8.0 mg/kg/injection, schedule: Q01DX005 (ip), vehicle: distilled water + Tween-80",156 % of control
same,T/C,"dose: 8.0 mg/kg/injection, schedule: Q01DX009 (ip), vehicle: distilled water + Tween-80",162 % of control
COCCOC,T/C,[1],98 % of control
same,T/C,[2],94 % of control
same,T/C,[3],96 % of control
CC(NC(=O)OCc1ccccc1)C(=O)NC(C(=O)O)C(C)O (stereo unspecified),T/C,[4],98 % of control
same,T/C,[5],106 % of control
Nc1nc(SCc2ccccc2)c2ncn(C3OC(CO)CC3O)c2n1 (stereo unspecified),T/C,"dose: 50.0 mg/kg/injection, schedule: Q01DX009 (ip), vehicle: Klucel (hydroxypropylcellulose) (HPC)",116 % of control
same,T/C,[4],107 % of control
Nc1cc2c3c(cccc3c1)C(=O)N(CCN1CCCC1)C2=O,T/C,"dose: 3.12 mg/kg/injection, schedule: Q01DX009 (ip), vehicle: saline with Tween-80",113 % of control and 106 % of control
same,T/C,"dose: 6.25 mg/kg/injection, schedule: Q01DX009 (ip), vehicle: saline with Tween-80",97 % of control and 98 % of control
same,T/C,[12],115 % of control and 107 % of control
same,T/C,[7],122 % of control
O=S(=O)(N=N/C=C1\C=CC=CN1O)c1cccs1,T/C,[12],101 % of control
same,T/C,[6],104 % of control
same,T/C,[7],114 % of control
CC1C(c2ccccc2)OC(N2CCOCC2)C(C)(C)CN1C (stereo unspecified),T/C,[7],103 % of control
same,T/C,[8],99 % of control
same,T/C,[9],96 % of control
same,T/C,[10],100 % of control
COC12C(COC(=O)NCCO)C3=C(C(=O)C(C)=C(N)C3=O)N1CC1NC12 (stereo unspecified),T/C,"dose: 3.13 mg/kg/injection, schedule: Q01DX009 (ip), vehicle: Klucel (hydroxypropylcellulose) (HPC)",110 % of control
same,T/C,[11],205 % of control
same,T/C,"dose: 25.0 mg/kg/injection, schedule: Q01DX009 (ip), vehicle: Klucel (hydroxypropylcellulose) (HPC)",121 % of control
COc1cccc2c1C(=O)c1c(O)c3c(c(O)c1C2=O)C[C@@](O)(C(=O)CO)C[C@@H]3OC1CC(OC(C)=O)C(OC(C)=O)C(C)O1 (stereo partly specified),T/C,"dose: 6.25 mg/kg/injection, schedule: Q01DX009 (ip), vehicle: distilled water + Tween-80",178 % of control
same,T/C,"dose: 12.5 mg/kg/injection, schedule: Q01DX001 (ip), vehicle: distilled water + Tween-80",150 % of control
same,T/C,"dose: 25.0 mg/kg/injection, schedule: Q01DX001 (ip), vehicle: distilled water + Tween-80",159 % of control and 195 % of control
same,T/C,"dose: 50.0 mg/kg/injection, schedule: Q01DX001 (ip), vehicle: distilled water + Tween-80",176 % of control and 202 % of control
